Key:
BlaC = BlaC (Mycobacterium tuberculosis, UniProt P9WKD3); assay type: biochemical
[1] = Stability of fluorogenic probes in MES buffer (spontaneous hydrolysis); assay type: physicochemical; details: 0.1 M, pH 6.6, room temperature (22° C.)
[2] = system: E. cloacae with AmpC β-lactamase; assay type: cell-based; details: 10^5 c.f.u., probe 10 μM, 3 h incubation
[3] = system: K. pneumoniae with Class A carbapenemase KPC; assay type: cell-based; details: 10^5 c.f.u., probe 10 μM, 3 h incubation
[4] = system: β-lactamase-expressing bacteria; assay type: cell-based
[5] = system: penicillinase isolated from Bacillus cereus (Pen); details: probe 10 μM, 3 h incubation with diluted Pen
Experimental: Data were collected in a 384-well plate with a total volume of 25 μL in each well. Fluorescence was measured with excitation at 490 nm and emission at 535 nm. Relative fluorescence represents the difference in fluorescence intensity with and without β-lactamase incubation. […] Error bars are ±SD.

BlaC, sequence (P9WKD3 35-307 limits assumed): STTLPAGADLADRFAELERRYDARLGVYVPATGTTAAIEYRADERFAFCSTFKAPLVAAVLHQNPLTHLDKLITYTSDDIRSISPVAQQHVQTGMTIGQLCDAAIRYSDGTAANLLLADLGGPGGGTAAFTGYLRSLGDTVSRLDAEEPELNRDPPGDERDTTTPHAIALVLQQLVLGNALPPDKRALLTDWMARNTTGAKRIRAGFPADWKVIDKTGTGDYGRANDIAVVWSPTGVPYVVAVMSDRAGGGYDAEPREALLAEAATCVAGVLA

SMILES	catalytic efficiency (kcat/Km) for BlaC over TEM-1 Bla (BlaC)	spontaneous hydrolysis rate [1]	fluorescent intensity ratio of AmpC to BlaC (IAmpC/IBlaC) [2]	fluorescent intensity ratio IKPC/IBlaC [3]	fluorescence signal with β-lactamase-expressing bacteria (specificity) [4]	activity towards penicillinase (Pen) [5]
COc1ccc(-c2c3ccc(=O)cc-3oc3cc(OCc4ccc(OCC5=C(C(=O)O)N6C(=O)[C@](NC(=O)Cc7ccccc7)(OC)[C@H]6SC5)cc4)ccc23)c(C)c1 [CDG-OMe]	8,900 fold	1.9e-07 s⁻¹	1/9	1/4	much better selectivity for BlaC over other β-lactamase expressing bacteria	some activity
CO[C@@]1(NC(=O)Cc2ccccc2)C(=O)N2C(C(=O)O)=C(COc3ccc4ccc(=O)oc4c3)C3(CC3)S[C@@H]21 [CDC-OMe-Cp, (6R,7S)-7-methoxy-3-(((2-oxo-2H-chromen-7-yl)oxy)methyl)-7-(2-phenylacetamido)-2-azaspiro[2,1′-cyclopropane]-3-cephem-4-carboxylic acid]	6.3×10^4 fold					
O=C(Cc1ccccc1)N[C@@H]1C(=O)N2C(C(=O)O)=C(COc3ccc4ccc(=O)oc4c3)C3(CC3)S[C@H]12 [CDC-Cp, (6R,7R)-3-(((2-oxo-2H-chromen-7-yl)oxy)methyl)-7-(2-phenylacetamido)-2-azaspiro[2,1′-cyclopropane]-3-cephem-2-carboxylic acid]	around 10 fold					
COc1ccc(-c2c3ccc(=O)cc-3oc3cc(OCc4ccc(OCC5=C(C(=O)O)N6C(=O)[C@@H](NC(=O)Cc7ccccc7)[C@H]6SC5)cc4)ccc23)c(C)c1 [CDG-1]					fluorescent signal turn-on with all bacteria	
